Reference: the supplement of paper PMC10307832

Compound: C[C@@]1(C(=O)Nc2ccc(F)nc2)CCCN1c1nc(Nc2cc(C3CC3)n[nH]2)c2cccn2n1 + N=C(N)NC(=N)NCCc1ccccc1 [Phenformin] (partner 250 µM)
Test: relative viability (nuclei count vs DMSO), 5 days (fraction); higher = more cells survive
Details: first compound 0.04 µM
Outline: (§1)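 Five library-drug doses in √10 steps were combined with a fixed anchor-drug dose, or a single drug was given alone, by pin tool to lung cancer cell lines in 1536-well plates the day after seeding. Nuclei were stained and counted after 5 days. Relative viability is the nuclei count in treated wells over that in vehicle wells, taken as the median of duplicate plates.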

| Cell Line | relative viability |
| --- | --- |
| NCI-H23 | 0.703 |
| NCI-H647 | 0.651 |
| CAL-12T | 0.575 |
| NCI-H1651 | 0.283 |
| EPLC-272H | 0.315 |
| NCI-H2228 | 0.223 |
| NCI-H1792 | 0.145 |
| NCI-H1355 | 0.418 |
| NCI-H3122 | 0.411 |
| NCI-H1437 | 0.257 |
| NCI-H1755 | 0.638 |
| NCI-H2023 | 0.354 |
| HCC-15 | 0.387 |
| NCI-H1793 | 0.322 |
| PC-14 | 0.708 |
| EKVX | 0.204 |
| LC-2-ad | 0.484 |
| NCI-H1944 | 0.169 |
| NCI-H1975 | 0.407 |
| RERF-LC-KJ | 0.315 |
| ABC-1 | 0.182 |
| NCI-H358 | 0.212 |
| NCI-H650 | 0.452 |
| PC-3 [JPC-3] | 0.504 |

Same assay, conditions: first compound 0.1265 µM

| Cell Line | relative viability |
| --- | --- |
| NCI-H23 | 0.648 |
| NCI-H647 | 0.488 |
| CAL-12T | 0.507 |
| NCI-H1651 | 0.287 |
| NCI-H2228 | 0.196 |
| NCI-H1792 | 0.0792 |
| NCI-H1355 | 0.415 |
| NCI-H3122 | 0.373 |
| NCI-H1437 | 0.253 |
| NCI-H1755 | 0.55 |
| NCI-H2023 | 0.271 |
| HCC-15 | 0.209 |
| NCI-H1793 | 0.286 |
| EKVX | 0.215 |
| LC-2-ad | 0.388 |
| NCI-H1944 | 0.153 |
| NCI-H1975 | 0.36 |
| RERF-LC-KJ | 0.348 |
| ABC-1 | 0.211 |
| NCI-H358 | 0.144 |
| NCI-H650 | 0.405 |
| PC-3 [JPC-3] | 0.467 |

Same assay, conditions: first compound 0.4 µM

| Cell Line | relative viability |
| --- | --- |
| NCI-H23 | 0.533 |
| NCI-H647 | 0.346 |
| CAL-12T | 0.464 |
| NCI-H1651 | 0.269 |
| EPLC-272H | 0.251 |
| NCI-H2228 | 0.171 |
| NCI-H1792 | 0.208 |
| NCI-H1355 | 0.347 |
| NCI-H3122 | 0.387 |
| NCI-H1437 | 0.214 |
| NCI-H1755 | 0.53 |
| NCI-H2023 | 0.294 |
| HCC-15 | 0.27 |
| PC-14 | 0.517 |
| EKVX | 0.218 |
| LC-2-ad | 0.369 |
| NCI-H1944 | 0.136 |
| NCI-H1975 | 0.326 |
| RERF-LC-KJ | 0.322 |
| ABC-1 | 0.216 |
| NCI-H358 | 0.113 |
| NCI-H650 | 0.406 |
| PC-3 [JPC-3] | 0.456 |

Same assay, conditions: first compound 1.265 µM

| Cell Line | relative viability |
| --- | --- |
| NCI-H23 | 0.704 |
| NCI-H647 | 0.458 |
| CAL-12T | 0.207 |
| NCI-H1651 | 0.283 |
| EPLC-272H | 0.275 |
| NCI-H2228 | 0.232 |
| NCI-H1792 | 0.189 |
| NCI-H1355 | 0.39 |
| NCI-H3122 | 0.575 |
| NCI-H1437 | 0.171 |
| NCI-H1755 | 0.547 |
| NCI-H2023 | 0.189 |
| HCC-15 | 0.259 |
| NCI-H1793 | 0.306 |
| PC-14 | 0.523 |
| EKVX | 0.221 |
| LC-2-ad | 0.257 |
| NCI-H1944 | 0.133 |
| NCI-H1975 | 0.314 |
| RERF-LC-KJ | 0.273 |
| ABC-1 | 0.216 |
| NCI-H358 | 0.115 |
| NCI-H650 | 0.316 |
| PC-3 [JPC-3] | 0.476 |

Compound: CC1(C)CNc2cc(NC(=O)c3cccnc3NCc3ccncc3)ccc21 [Motesanib] + COc1cccc2cc(-c3nc([C@H]4CC[C@H](C(=O)O)CC4)n4ncnc(N)c34)[nH]c12 [OSI-027] (partner 0.5 µM)
Test: as above
Details: first compound 0.01 µM
Outline: as §1

| Cell Line | relative viability |
| --- | --- |
| NCI-H23 | 0.602 |
| NCI-H647 | 0.848 |
| CAL-12T | 0.628 |
| NCI-H1651 | 0.848 |
| EPLC-272H | 0.236 |
| NCI-H2228 | 0.572 |
| NCI-H1355 | 0.411 |
| NCI-H3122 | 0.836 |
| NCI-H1437 | 0.872 |
| NCI-H1755 | 0.661 |
| NCI-H2023 | 0.453 |
| HCC-15 | 0.693 |
| NCI-H1793 | 0.26 |
| PC-14 | 0.868 |
| EKVX | 0.684 |
| LC-2-ad | 0.927 |
| NCI-H1944 | 0.37 |
| NCI-H1975 | 0.66 |
| RERF-LC-KJ | 0.637 |
| ABC-1 | 0.438 |
| NCI-H358 | 0.9 |
| NCI-H650 | 0.529 |
| PC-3 [JPC-3] | 0.8 |

Same assay, conditions: first compound 0.03162 µM

| Cell Line | relative viability |
| --- | --- |
| NCI-H23 | 0.593 |
| NCI-H647 | 0.528 |
| CAL-12T | 0.731 |
| NCI-H1651 | 0.663 |
| EPLC-272H | 0.311 |
| NCI-H2228 | 0.455 |
| NCI-H1792 | 0.65 |
| NCI-H1355 | 0.424 |
| NCI-H3122 | 0.962 |
| NCI-H1437 | 0.899 |
| NCI-H1755 | 0.682 |
| NCI-H2023 | 0.374 |
| HCC-15 | 0.65 |
| NCI-H1793 | 0.272 |
| PC-14 | 1.01 |
| EKVX | 0.655 |
| LC-2-ad | 0.948 |
| NCI-H1944 | 0.424 |
| NCI-H1975 | 0.702 |
| RERF-LC-KJ | 0.565 |
| ABC-1 | 0.521 |
| NCI-H358 | 0.802 |
| PC-3 [JPC-3] | 0.737 |

Same assay, conditions: first compound 0.1 µM

| Cell Line | relative viability |
| --- | --- |
| NCI-H23 | 0.609 |
| NCI-H647 | 0.578 |
| CAL-12T | 0.685 |
| NCI-H1651 | 0.628 |
| NCI-H2228 | 0.489 |
| NCI-H1792 | 0.723 |
| NCI-H1355 | 0.39 |
| NCI-H3122 | 0.933 |
| NCI-H1437 | 0.903 |
| NCI-H1755 | 0.746 |
| NCI-H2023 | 0.373 |
| HCC-15 | 0.64 |
| NCI-H1793 | 0.261 |
| PC-14 | 0.704 |
| EKVX | 0.788 |
| LC-2-ad | 0.872 |
| NCI-H1944 | 0.438 |
| NCI-H1975 | 0.747 |
| RERF-LC-KJ | 0.582 |
| ABC-1 | 0.407 |
| NCI-H358 | 0.767 |
| NCI-H650 | 0.539 |
| PC-3 [JPC-3] | 0.784 |

Same assay, conditions: first compound 0.3162 µM

| Cell Line | relative viability |
| --- | --- |
| NCI-H23 | 0.675 |
| NCI-H647 | 0.717 |
| CAL-12T | 0.555 |
| NCI-H1651 | 0.652 |
| EPLC-272H | 0.263 |
| NCI-H2228 | 0.689 |
| NCI-H1792 | 0.824 |
| NCI-H1355 | 0.414 |
| NCI-H3122 | 1.08 |
| NCI-H1437 | 0.803 |
| NCI-H1755 | 0.826 |
| NCI-H2023 | 0.404 |
| HCC-15 | 0.817 |
| NCI-H1793 | 0.284 |
| PC-14 | 0.844 |
| EKVX | 0.732 |
| LC-2-ad | 0.803 |
| NCI-H1944 | 0.475 |
| NCI-H1975 | 0.677 |
| RERF-LC-KJ | 0.59 |
| ABC-1 | 0.332 |
| NCI-H358 | 0.906 |
| NCI-H650 | 0.574 |
| PC-3 [JPC-3] | 0.759 |

Same assay, conditions: first compound 1 µM

| Cell Line | relative viability |
| --- | --- |
| NCI-H23 | 0.614 |
| NCI-H647 | 0.557 |
| CAL-12T | 0.677 |
| NCI-H1651 | 0.615 |
| EPLC-272H | 0.244 |
| NCI-H2228 | 0.572 |
| NCI-H1792 | 0.651 |
| NCI-H1355 | 0.431 |
| NCI-H3122 | 1.23 |
| NCI-H1437 | 0.856 |
| NCI-H1755 | 0.652 |
| NCI-H2023 | 0.429 |
| HCC-15 | 0.64 |
| NCI-H1793 | 0.302 |
| PC-14 | 0.849 |
| EKVX | 0.674 |
| LC-2-ad | 0.716 |
| NCI-H1944 | 0.427 |
| NCI-H1975 | 0.669 |
| RERF-LC-KJ | 0.593 |
| ABC-1 | 0.604 |
| NCI-H358 | 0.716 |
| NCI-H650 | 0.537 |
| PC-3 [JPC-3] | 0.86 |

Compound: CC1(C)CNc2cc(NC(=O)c3cccnc3NCc3ccncc3)ccc21 [Motesanib] + N=C(N)NC(=N)NCCc1ccccc1 [Phenformin] (partner 250 µM)
Test: as above
Details: first compound 0.01 µM
Outline: as §1

| Cell Line | relative viability |
| --- | --- |
| NCI-H23 | 0.799 |
| NCI-H647 | 0.491 |
| CAL-12T | 0.562 |
| NCI-H1651 | 0.295 |
| EPLC-272H | 0.253 |
| NCI-H2228 | 0.26 |
| NCI-H1792 | 0.202 |
| NCI-H1355 | 0.436 |
| NCI-H3122 | 0.351 |
| NCI-H1437 | 0.287 |
| NCI-H1755 | 0.618 |
| NCI-H2023 | 0.387 |
| HCC-15 | 0.416 |
